Several values for one entry are separate records, joined by “and”; a condition that tells them apart may be missing. Identical values can stand only once.
Columns and labels:
[1] = molecular target: T1, Vitamin D3 receptor (Bos taurus) (UniProt Q28037); assay: Percent binding affinity for bovine vitamin D receptor compared to 2-Me-1-alpha,2,5-dihydroxy-19-norvitamin D3
T1 sequence (whole entry): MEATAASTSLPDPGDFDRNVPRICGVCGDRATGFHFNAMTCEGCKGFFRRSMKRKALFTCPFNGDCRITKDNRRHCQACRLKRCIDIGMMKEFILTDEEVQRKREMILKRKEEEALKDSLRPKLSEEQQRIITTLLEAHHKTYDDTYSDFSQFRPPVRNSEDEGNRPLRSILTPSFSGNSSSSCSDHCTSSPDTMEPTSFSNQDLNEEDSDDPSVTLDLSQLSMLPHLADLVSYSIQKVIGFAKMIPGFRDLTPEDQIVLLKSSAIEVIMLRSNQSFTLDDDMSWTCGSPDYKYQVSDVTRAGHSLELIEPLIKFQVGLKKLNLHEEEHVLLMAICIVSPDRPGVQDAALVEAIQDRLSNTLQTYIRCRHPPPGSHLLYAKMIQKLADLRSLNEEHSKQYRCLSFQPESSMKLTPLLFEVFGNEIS

[2] = molecular target: T1, Vitamin D3 receptor (Bos taurus); assay: Percent binding affinity for bovine vitamin D receptor compared to 1a
[3] = molecular target: T2, Vitamin D3 receptor (Homo sapiens) (UniProt P11473); assay: Activation of vitamin D receptor in COS-7 cell transcription assay; format: functional, cell-based
T2 sequence (whole entry): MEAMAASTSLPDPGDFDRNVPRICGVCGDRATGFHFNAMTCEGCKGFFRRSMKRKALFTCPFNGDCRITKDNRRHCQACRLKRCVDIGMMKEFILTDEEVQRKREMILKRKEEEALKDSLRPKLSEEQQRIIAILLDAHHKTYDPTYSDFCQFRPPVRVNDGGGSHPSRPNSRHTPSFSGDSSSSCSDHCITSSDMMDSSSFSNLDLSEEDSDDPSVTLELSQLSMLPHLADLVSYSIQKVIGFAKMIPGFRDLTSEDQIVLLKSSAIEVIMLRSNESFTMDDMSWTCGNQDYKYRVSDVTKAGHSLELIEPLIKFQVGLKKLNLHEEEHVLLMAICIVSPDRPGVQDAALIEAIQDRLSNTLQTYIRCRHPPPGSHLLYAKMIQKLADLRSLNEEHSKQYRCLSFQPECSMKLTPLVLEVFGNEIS

[4] = molecular target: T2, Vitamin D3 receptor (Homo sapiens); assay: Percent activation of vitamin D receptor in COS-7 cell transcription assay at 10e-8 or 10e-9 M; format: functional, cell-based
[5] = molecular target: T1, Vitamin D3 receptor (Bos taurus); assay: Percent binding affinity for bovine vitamin D receptor compared to 2-Et-1-alpha,2,5-dihydroxy-19-norvitamin D3

| Compound | VDR affinity [2] | also measured |
| --- | --- | --- |
| C[C@H](CCCC(C)(C)O)[C@H]1CC[C@H]2/C(=C\C=C3C[C@@H](O)C(C)(O)[C@H](O)C3)CCC[C@]12C (stereo partly specified) | – | VDR affinity [1]: 21% and 2.6% |
| C[C@H](CCCC(C)(C)O)[C@H]1CC[C@H]2/C(=C\C=C3C[C@@H](O)C4(CO4)[C@H](O)C3)CCC[C@]12C (stereo partly specified) | 4% and 3% | ED50 [3]: 5 nM and 4 nM |
| C=C1/C(=C\C=C2/CCC[C@]3(C)[C@@H]([C@H](C)CCCC(C)(C)O)CC[C@@H]23)C[C@@H](O)C[C@@H]1O | 100% | – |
| COCC1(O)[C@H](O)CC(=C/C=C2/CCC[C@]3(C)[C@@H]([C@@H](C)CCCC(C)(C)O)CC[C@@H]23)C[C@H]1O (stereo partly specified) | 20% and 10% | – |
| C[C@@H](CCCC(C)(C)O)[C@H]1CC[C@H]2/C(=C\C=C3C[C@@H](O)C(O)(CF)[C@H](O)C3)CCC[C@]12C (stereo partly specified) | 60% | – |
| C[C@H](CCCC(C)(C)O)[C@H]1CC[C@H]2/C(=C\C=C3C[C@@H](O)C(O)(CF)[C@H](O)C3)CCC[C@]12C (stereo partly specified) | 2% and 0.02% | – |
| C[C@@H](CCCC(C)(C)O)[C@H]1CC[C@H]2/C(=C\C=C3C[C@@H](O)C(C)(O)[C@H](O)C3)CCC[C@]12C (stereo partly specified) | 100% | VDR affinity [1]: 23% and 18%; ED50 [3]: 3200 nM |
| CCC1(O)[C@H](O)CC(=C/C=C2/CCC[C@]3(C)[C@@H]([C@H](C)CCCC(C)(C)O)CC[C@@H]23)C[C@H]1O (stereo partly specified) | 2% and 0.05% | – |
| COCC1(O)[C@H](O)CC(=C/C=C2/CCC[C@]3(C)[C@@H]([C@H](C)CCCC(C)(C)O)CC[C@@H]23)C[C@H]1O (stereo partly specified) | 4% and 0.1% | – |
| CCC1(O)[C@H](O)CC(=C/C=C2/CCC[C@]3(C)[C@@H]([C@@H](C)CCCC(C)(C)O)CC[C@@H]23)C[C@H]1O (stereo partly specified) | 5% | Transcriptional activity [4]: 92%; VDR affinity [5]: 200% |
| C[C@@H](CCCC(C)(C)O)[C@H]1CC[C@H]2/C(=C\C=C3C[C@@H](O)C4(CO4)[C@H](O)C3)CCC[C@]12C (stereo partly specified) | – | ED50 [3]: 89 nM and 18 nM |

From ChEMBL document CHEMBL1142015, “New derivatives of 1alpha,25-dihydroxy-19-norvitamin D3 with two substituents at C-2: synthesis and biological activity” (Bioorg Med Chem Lett, 2005)
